ChEMBL document CHEMBL1148188, “Cytotoxic and antimalarial alkaloids from the bulbs of Crinum amabile” (J Nat Prod, 1993)
Values after ≈ are worked out from the molar mass of the structure shown.

Key:
[1] = Cytotoxicity against human KBV1 cells after 3 days by sulforhodamine B assay; format: functional; conditions: KB-V1, 72 h, read-out: ED50 (the source's name)
[2] = Cytotoxicity against human Col1 cells after 3 days by sulforhodamine B assay; format: functional; conditions: Col1, 72 h, read-out: ED50 (the source's name)
LNCaP = test: Cytotoxicity against human LNCAP cells after 3 days by sulforhodamine B assay; format: functional; conditions: 72 h, read-out: ED50 (the source's name)
A-431 = test: Cytotoxicity against human A431 cells after 3 days by sulforhodamine B assay; format: functional; conditions: A-431, 72 h, read-out: ED50 (the source's name)
KB = test: Cytotoxicity against human KB cells after 3 days by sulforhodamine B assay; format: functional; conditions: 72 h, read-out: ED50 (the source's name)
P388 = test: Cytotoxicity against mouse P388 cells after 3 days by sulforhodamine B assay; format: functional; conditions: P388, 72 h, read-out: ED50 (the source's name)
[3] = Cytotoxicity against human LUC1 cells after 3 days by sulforhodamine B assay; format: functional; conditions: LUC1, 72 h, read-out: ED50 (the source's name)
ZR-75-1 = test: Cytotoxicity against human ZR-75-1 cells after 3 days by sulforhodamine B assay; format: functional; conditions: ZR-75-1, 72 h, read-out: ED50 (the source's name)
[4] = Cytotoxicity against human U373 cells after 3 days by sulforhodamine B assay; format: functional, U-373MG ATCC; conditions: U373 MG, 72 h, read-out: ED50 (the source's name)
SK-MEL-2 = test: Cytotoxicity against human SK-MEL-2 cells after 3 days by sulforhodamine B assay; format: functional; conditions: SK-MEL-2, 72 h, read-out: ED50 (the source's name)
HT-1080 = test: Cytotoxicity against human HT1080 cells after 3 days by sulforhodamine B assay; format: functional; conditions: HT-1080, 72 h, read-out: ED50 (the source's name)
[5] = Cytotoxicity against human BCA1 cells after 3 days by sulforhodamine B assay; format: functional; conditions: BCA1, 72 h, read-out: ED50 (the source's name)
[6] = Selectivity index, ratio of ED50 for human KB cells to ED50 for Plasmodium falciparum W2; format: toxicity, cell-based; conditions: read-out: Ratio ED50
[7] = Selectivity index, ratio of ED50 for human KB cells to ED50 for Plasmodium falciparum D6; format: toxicity, cell-based; conditions: read-out: Ratio ED50
Plasmodium falciparum [8] = test: Antimalarial activity after 24 hrs against Plasmodium falciparum D6 infected type A+ human erythrocytes by [3H]hypoxanthine uptake; format: functional; conditions: D6, read-out: ED50
Plasmodium falciparum [9] = test: Antimalarial activity after 24 hrs against Plasmodium falciparum W2 infected in type A+ human erythrocytes by [3H]hypoxanthine uptake; format: functional; conditions: W2, read-out: ED50

For O[C@@H]1CC[C@H]2N3CC[C@@]2(c2cc4c(cc2C3)OCO4)[C@@H]1O, the EC50 [1] was > 20 µg/mL, the EC50 [2] was > 20 µg/mL and the EC50 (LNCaP) was > 20 µg/mL. The EC50 (A-431) was > 20 µg/mL, the EC50 (KB) was > 20 µg/mL and the EC50 (P388) was > 5 µg/mL. The EC50 [3] was > 20 µg/mL, the EC50 (ZR-75-1) was > 20 µg/mL and the EC50 [4] was > 20 µg/mL. For the same compound, the EC50 (SK-MEL-2) was > 20 µg/mL, the EC50 (HT-1080) was > 20 µg/mL and the EC50 [5] was > 20 µg/mL.

In the case of CO[C@@H]1C[C@H]2N3CC[C@@]2(c2cc4c(cc2C3)OCO4)[C@H]2O[C@@H]12, the selectivity ratio [6] is reported as 3, the EC50 [1] is reported as > 20 µg/mL and the EC50 [2] is reported as 2.4 µg/mL (≈ 7.96 µM). The selectivity ratio [7] was 4, the EC50 (LNCaP) was 1.7 µg/mL (≈ 5.64 µM) and the EC50 (Plasmodium falciparum [8]) was 0.14 µg/mL (≈ 0.465 µM). The EC50 (A-431) was 4.9 µg/mL (≈ 16.3 µM), the EC50 (Plasmodium falciparum [9]) was 0.18 µg/mL (≈ 0.597 µM) and the EC50 (KB) was 0.6 µg/mL (≈ 1.99 µM). For the same compound, the EC50 (P388) was 0.6 µg/mL (≈ 1.99 µM), the EC50 [3] was 3.7 µg/mL (≈ 12.3 µM) and the EC50 (ZR-75-1) was 1.8 µg/mL (≈ 5.97 µM). The EC50 [4] was 0.6 µg/mL (≈ 1.99 µM), the EC50 (SK-MEL-2) was 3.2 µg/mL (≈ 10.6 µM) and the EC50 (HT-1080) was 1.2 µg/mL (≈ 3.98 µM). For the same compound, the EC50 [5] was 2.8 µg/mL (≈ 9.29 µM).

CO[C@H]1C=C[C@@]23c4cc5c(cc4CN(C[C@@H]2O)[C@H]3C1)OCO5 showed a selectivity ratio [6] of 0.4, an EC50 [1] of 0.6 µg/mL (≈ 1.99 µM) and an EC50 [2] of 1 µg/mL (≈ 3.32 µM). For the same compound, the selectivity ratio [7] was 0.4, the EC50 (LNCaP) was 1.5 µg/mL (≈ 4.98 µM) and the EC50 (A-431) was 6.9 µg/mL (≈ 22.9 µM). It also gave an EC50 (KB) of 1 µg/mL (≈ 3.32 µM), an EC50 (P388) of 0.7 µg/mL (≈ 2.32 µM) and an EC50 [3] of 1.4 µg/mL (≈ 4.65 µM). For the same compound, the EC50 (ZR-75-1) was 0.8 µg/mL (≈ 2.65 µM), the EC50 [4] was 0.9 µg/mL (≈ 2.99 µM) and the EC50 (SK-MEL-2) was 5 µg/mL (≈ 16.6 µM). For the same compound, the EC50 (HT-1080) was 1.3 µg/mL (≈ 4.31 µM) and the EC50 [5] was 1.4 µg/mL (≈ 4.65 µM).

With COC1C=C[C@@]23CCN(Cc4cc5c(cc42)OCO5)[C@@H]3C1 (stereo partly drawn) the EC50 [1] was 19.8 µg/mL (≈ 69.4 µM), the EC50 [2] was > 20 µg/mL and the EC50 (LNCaP) was > 20 µg/mL. For the same compound, the EC50 (A-431) was > 20 µg/mL, the EC50 (KB) was > 20 µg/mL and the EC50 (P388) was > 5 µg/mL. For the same compound, the EC50 [3] was > 20 µg/mL, the EC50 (ZR-75-1) was > 20 µg/mL and the EC50 [4] was > 20 µg/mL. For the same compound, the EC50 (SK-MEL-2) was > 20 µg/mL, the EC50 (HT-1080) was > 20 µg/mL and the EC50 [5] was > 20 µg/mL.

With C[C@@H]1CC[C@H]2[C@@H](C)C(=O)O[C@@H]3O[C@@]4(C)CC[C@@H]1[C@]32OO4 [ARTEMISININ] the selectivity ratio [6] was > 40000, the selectivity ratio [7] was > 33300 and the EC50 (Plasmodium falciparum [8]) was 0.0006 µg/mL (≈ 0.00213 µM).

In the case of CCN(CC)CCCC(C)Nc1ccnc2cc(Cl)ccc12 (stereo not drawn) [CHLOROQUINE], the EC50 (Plasmodium falciparum [8]) is reported as 0.0013 µg/mL (≈ 0.00406 µM) and the EC50 (Plasmodium falciparum [9]) is reported as 0.0112 µg/mL (≈ 0.035 µM).

O[C@H]1[C@H]2c3cc4c(cc3CN3CCC(=C[C@@H]1O)[C@H]23)OCO4 [LYCORINE] showed a selectivity ratio [6] of 1, an EC50 [1] of 0.4 µg/mL (≈ 1.39 µM) and an EC50 [2] of 0.8 µg/mL (≈ 2.78 µM). It also gave a selectivity ratio [7] of 1, an EC50 (LNCaP) of 0.5 µg/mL (≈ 1.74 µM) and an EC50 (Plasmodium falciparum [8]) of 0.32 µg/mL (≈ 1.11 µM). It also gave an EC50 (A-431) of 1.3 µg/mL (≈ 4.52 µM), an EC50 (Plasmodium falciparum [9]) of 0.3 µg/mL (≈ 1.04 µM) and an EC50 (KB) of 0.3 µg/mL (≈ 1.04 µM). The EC50 (P388) was 0.9 µg/mL (≈ 3.13 µM), the EC50 [3] was 0.9 µg/mL (≈ 3.13 µM) and the EC50 (ZR-75-1) was 0.9 µg/mL (≈ 3.13 µM). The EC50 [4] was 0.3 µg/mL (≈ 1.04 µM), the EC50 (SK-MEL-2) was 1.6 µg/mL (≈ 5.57 µM) and the EC50 (HT-1080) was 0.5 µg/mL (≈ 1.74 µM). It also gave an EC50 [5] of 1.6 µg/mL (≈ 5.57 µM).

In the case of OC(c1cc(C(F)(F)F)nc2c(C(F)(F)F)cccc12)C1CCCCN1 (stereo not drawn) [MEFLOQUINE], the selectivity ratio [6] is reported as 2190, the selectivity ratio [7] is reported as 480 and the EC50 (Plasmodium falciparum [8]) is reported as 0.0073 µg/mL (≈ 0.0193 µM). For the same compound, the EC50 (Plasmodium falciparum [9]) was 0.0016 µg/mL (≈ 0.00423 µM).

In the case of C=C[C@H]1CN2CC[C@H]1C[C@H]2[C@H](O)c1ccnc2ccc(OC)cc12 [QUININE], the selectivity ratio [6] is reported as > 820, the selectivity ratio [7] is reported as > 2130 and the EC50 (Plasmodium falciparum [8]) is reported as 0.0094 µg/mL (≈ 0.029 µM). For the same compound, the EC50 (Plasmodium falciparum [9]) was 0.0245 µg/mL (≈ 0.0755 µM).
